Measurements as given in patent publication US20220331309A1, “PHARMACEUTICAL COMPOSITION FOR TREATING INSOMNIA” (priority 2019, published 2022).

Tests used:
[1] = tested on: CYP3A; details: FDA guidance classification; cited from earlier work
[2] = Single dose administration test of lemborexant in healthy adults (Test Example 3); format: in vivo, human; details: for AUC(0-inf) / Cmax: human, plasma, oral
Protocol: In 64 cases of healthy adults under a feed-deprived condition, the pharmacokinetics of lemborexant administered with single doses of 1, 2.5, 5, 10, 25, 50, 100, and 200 mg thereof was examined by a randomized, double-blinded, placebo-controlled, multi-stage single administration test. In each group, lemborexant was administered to six cases, and the placebo was administered to two cases.
The transition of the mean lemborexant concentration in the plasma when single doses of 1, […], 10, 25, 50, 100, and 200 mg lemborexant were administered to the healthy adults is shown in FIG. 1.

[3] = Pharmacokinetics of lemborexant alone and in combination with itraconazole in healthy adults (Test Example 1-2); details: for Cmax (geometric mean): healthy adults
Protocol: (§1) HPLC (pump: LC-10ADvp or LC 20AD, Autosampler SLL 20ACHT, SHIMADZU Corporation) mass spectrometer (API5000 or API5500, AB Sciex)
(§2) A 10 μL solution of an internal standard substance (lemborexant labeled with deuterium) was added to 100 μL of a human plasma, and the resulting mixture was convened into a basic condition with 10 μL of aqueous ammonia and was subjected to liquid-liquid extraction with methyl tert-butyl ether (MTBE). After stirring (for about 10 minutes) and centrifugation (about 14000 rpm, for about 10 minutes) were performed, the upper layer was evaporated into dryness at 30° C. under a nitrogen stream, and was redissolved with 200 μL of a mixed solution (50/50, v/v) of 0.1% formic acid-containing acetonitrile/water to prepare a sample for LC-MS/MS.
(§3) The measurement was performed in an MRM mode by positive detection of an electrospray ionization (ESI) method. […] A variety of parameters for AP15500/5500 Qtrap used are shown below. Ion spray Voltage: 5500 v, Curtain Gas 40, CAD 8, Gas1 70, Gas2 70, DP100, Dwell time 250 (parameters are not limited to these)
(§4) The lemborexant concentration in the plasma was calculated using an internal standard calibration curve created through inverse regression according to the method of least squares generated from the ratio of the peak area of lemborexant to that of the internal standard substance.
A single dose of 10 mg lemborexant was administered to fifteen healthy adults (males and females, 21 to 55 years old) (single administration of lemborexant); 200 mg of itraconazole was administered one time per day from Day 15 to Day 34 where the single administration of lemborexant was defined as Day 1; and a single dose of 10 mg lemborexant was administered on Day 22 (administration of lemborexant in combination with itraconazole).

[4] = Prediction of pharmacokinetics of 2.5 mg lemborexant in combination with agent moderately or strongly inhibiting CYP3A (Test Example 1-3, dose proportionality); format: in vivo, human; details: for AUC(0-inf) / Cmax: both sexes, human, plasma, oral; for AUC(0-inf): read-out: mean AUC (0-inf) achieved; for Cmax: read-out: mean Cmax achieved
Protocol: The results are shown in Tables 3 and 4 with the actually measured values of the single administration of 10 mg lemborexant in Sections (1-1) and (1-2) above.

[5] = Pharmacokinetics of lemborexant alone and in combination with fluconazole in healthy adults (Test Example 1-1); details: for Cmax (geometric mean): healthy adults
Protocol: A single dose of 10 mg lemborexant was administered to fourteen healthy adults (males and females, 18 to 55 years old) (single administration of lemborexant); 200 mg of fluconazole was administered one time per day (two times only on Day 11) from Day 11 to Day 26 where the single administration of the lemborexant was defined as Day 1; and a single dose of 10 mg lemborexant was administered on Day 15 (administration of lemborexant in combination with fluconazole). The concentrations of lemborexant in the plasma during the single administration of lemborexant and during the administration of lemborexant in combination with fluconazole were measured with a high performance liquid chromatograph/tandem mass spectrometry (hereinafter, referred to as “LC-MS/MS”) under the following conditions to calculate the geometric means of the Cmax and the AUC (0-inf).
as §1, §2, §3, §4

[6] = all administration groups, in average
[7] = 10 mg lemborexant in combination with itraconazole
[8] = both, human, plasma, oral, 10 mg
[9] = combination with itraconazole vs single administration, 10 mg lemborexant
[10] = single administration of 10 mg lemborexant, plasma
[11] = 2.5 mg lemborexant in combination with fluconazole
[12] = 2.5 mg lemborexant in combination with itraconazole
[13] = 2.5 mg lemborexant, lower to upper limit of 95% CI in combination with fluconazole
[14] = 2.5 mg lemborexant, lower to upper limit of 95% CI in combination with itraconazole
[15] = 10 mg lemborexant in combination with fluconazole
[16] = combination with fluconazole vs single administration, 10 mg lemborexant

## CCC(C)n1ncn(-c2ccc(N3CCN(c4ccc(OCC5COC(Cn6cncn6)(c6ccc(Cl)cc6Cl)O5)cc4)CC3)cc2)c1=O (stereo not shown) [Itraconazole, itraconazole]
[1]
  Classification of CYP3A inhibiting action of drug used in combination: Strongly

## OC(Cn1cncn1)(Cn1cncn1)c1ccc(F)cc1F [fluconazole]
[1]
  Classification of CYP3A inhibiting action of drug used in combination: moderately

## Cc1ncc(OC[C@@]2(c3cccc(F)c3)C[C@H]2C(=O)Nc2ccc(F)cn2)c(C)n1 [lemborexant, (1R,2S)-2-(((2,4-dimethylpyrimidin-5-yl)oxy)methyl)-2-(3-fluorophenyl)-N-(5-fluoropyridin-2-yl)cyclopropanecarboxamide]
[2]; [6]
  exposure until 9 hours after administration as proportion of the AUC (0-inf): about 45%
  exposure until 9 hours after administration as proportion of the exposure until 24 hours: about 75%
[2]; dose of 10 mg or more
  increase of geometric mean Cmax relative to dose: slightly lower than the dose ratio
[2]; examined dose range 1 to 200 mg
  dose dependence of the mean AUC (0-24 h): approximately dose proportionality
[2]; 5 mg, single administration of 5 mg lemborexant, healthy adults, read-out: AUC(0-inf), Geometric mean
  AUC(0-inf): 146 ng·h/mL
[2]; 5 mg, single administration of 5 mg lemborexant, healthy adults, read-out: AUC(0-inf), Mean
  AUC(0-inf): 149 ng·h/mL
[2]; 5 mg, single administration of 5 mg lemborexant, healthy adults, read-out: AUC(0-inf), Median
  AUC(0-inf): 139 ng·h/mL
[2]; 5 mg, single administration of 5 mg lemborexant, healthy adults, read-out: AUC(0-inf), Minimum value
  AUC(0-inf): 123 ng·h/mL
[2]; 5 mg, single administration of 5 mg lemborexant, healthy adults, read-out: AUC(0-inf), maximum value
  AUC(0-inf): 209 ng·h/mL
[2]; 5 mg, single administration of 5 mg lemborexant, healthy adults, read-out: Cmax, Geometric mean
  Cmax: 22.3 ng/mL
[2]; 5 mg, single administration of 5 mg lemborexant, healthy adults, read-out: Cmax, Mean
  Cmax: 22.7 ng/mL
[2]; 5 mg, single administration of 5 mg lemborexant, healthy adults, read-out: Cmax, Median
  Cmax: 21.9 ng/mL
[2]; 5 mg, single administration of 5 mg lemborexant, healthy adults, read-out: Cmax, Minimum value
  Cmax: 17.2 ng/mL
[2]; 5 mg, single administration of 5 mg lemborexant, healthy adults, read-out: Cmax, maximum value
  Cmax: 30 ng/mL
[2]; 5 mg, single dose of 5 mg lemborexant, read-out: AUC (0-inf), lower limit value of the 95% confidence interval
  AUC(0-inf): 113 ng·h/mL
[2]; 5 mg, single dose of 5 mg lemborexant, read-out: AUC (0-inf), upper limit value of the 95% confidence interval
  AUC(0-inf): 189 ng·h/mL
[2]; 5 mg, single dose of 5 mg lemborexant, read-out: Cmax, lower limit value of the 95% confidence interval
  Cmax: 18.3 ng/mL
[2]; 5 mg, single dose of 5 mg lemborexant, read-out: Cmax, upper limit value of the 95% confidence interval
  Cmax: 27.3 ng/mL
[2]; 10 mg, single administration of 10 mg lemborexant, healthy adults, read-out: AUC(0-inf), Geometric mean
  AUC(0-inf): 299 ng·h/mL
[2]; 10 mg, single administration of 10 mg lemborexant, healthy adults, read-out: AUC(0-inf), Mean
  AUC(0-inf): 311 ng·h/mL
[2]; 10 mg, single administration of 10 mg lemborexant, healthy adults, read-out: AUC(0-inf), Median
  AUC(0-inf): 314 ng·h/mL
[2]; 10 mg, single administration of 10 mg lemborexant, healthy adults, read-out: AUC(0-inf), Minimum value
  AUC(0-inf): 188 ng·h/mL
[2]; 10 mg, single administration of 10 mg lemborexant, healthy adults, read-out: AUC(0-inf), maximum value
  AUC(0-inf): 409 ng·h/mL
[2]; 10 mg, single administration of 10 mg lemborexant, healthy adults, read-out: Cmax, Geometric mean
  Cmax: 32 ng/mL
[2]; 10 mg, single administration of 10 mg lemborexant, healthy adults, read-out: Cmax, Mean
  Cmax: 36 ng/mL
[2]; 10 mg, single administration of 10 mg lemborexant, healthy adults, read-out: Cmax, Median
  Cmax: 31.4 ng/mL
[2]; 10 mg, single administration of 10 mg lemborexant, healthy adults, read-out: Cmax, Minimum value
  Cmax: 16.9 ng/mL
[2]; 10 mg, single administration of 10 mg lemborexant, healthy adults, read-out: Cmax, maximum value
  Cmax: 62.1 ng/mL
[2]; 10 mg, single dose of 10 mg lemborexant, read-out: AUC (0-inf), lower limit value of the 95% confidence interval
  AUC(0-inf): 216 ng·h/mL
[2]; 10 mg, single dose of 10 mg lemborexant, read-out: AUC (0-inf), upper limit value of the 95% confidence interval
  AUC(0-inf): 414 ng·h/mL
[2]; 10 mg, single dose of 10 mg lemborexant, read-out: Cmax, lower limit value of the 95% confidence interval
  Cmax: 18.3 ng/mL
[2]; dose 5 to 10 mg, lower 95% CI limit Table 9 (5 mg) to upper 95% CI limit Table 4 (10 mg), read-out: mean AUC (0-inf) achieved
  AUC(0-inf): 113 to 537 ng·h/mL
[2]; dose 5 to 10 mg, lower limit for 5 mg with weak CYP3A inhibitor to upper 95% CI limit Table 8 (10 mg), read-out: mean Cmax achieved
  Cmax: 16.5 to 56 ng/mL
[2]; single dose of 10 mg lemborexant
  Cmax, upper limit value of the 95% confidence interval: 56.0 ng/mL
[2]; single doses 1 to 200 mg, healthy adults
  elimination profile of plasma concentration after administration: biphasic elimination
[3]; [7]
  increase of mean AUC (0-inf) compared to single administration: 270%
  increase of mean Cmax compared to single administration: 36%
[3]; 10 mg lemborexant in combination with itraconazole 200 mg once per day, plasma
  Cmax (geometric mean): 73.9 ng/mL
[3]; [8]
  AUC(0-inf): 433 ng·h/mL
[3]; [9]
  AUC(0-inf) ratio of (d) to (c): 3.70
  Cmax ratio of (d) to (c): 1.36
[3]; [10]
  Cmax (geometric mean): 54.3 ng/mL
[4]; [11]
  AUC(0-inf), predicted value (geometric mean): 370 ng·h/mL
  Cmax, predicted value (geometric mean): 22.1 ng/mL
  predicted mean AUC (0-inf) lower than mean AUC (0-inf) of single 10 mg dose: 1.1%
  predicted mean Cmax lower than mean Cmax of single 10 mg dose: 59.4%
[4]; [12]
  AUC(0-inf), predicted value (geometric mean): 447 ng·h/mL
  Cmax, predicted value (geometric mean): 18.9 ng/mL
  predicted mean AUC (0-inf) higher than mean AUC (0-inf) of single 10 mg dose: 32%
[4]; [13]
  AUC(0-inf): 308 to 445 ng·h/mL
  Cmax: 18.1 to 26.9 ng/mL
[4]; [14]
  AUC(0-inf): 374 to 533 ng·h/mL
  Cmax: 17 to 21.1 ng/mL
[4]; 2.5 mg, 2.5 mg lemborexant with moderate or strong CYP3A inhibitor, lower 95% CI limit with itraconazole to upper 95% CI limit with fluconazole
  Cmax: 17 to 26.9 ng/mL
[4]; 2.5 mg lemborexant with moderate or strong CYP3A inhibitor, lower 95% CI limit with fluconazole to upper 95% CI limit with itraconazole
  AUC(0-inf): 308 to 533 ng·h/mL
[5]; [15]
  increase of mean AUC (0-inf) compared to single administration: 317%
  increase of mean Cmax compared to single administration: 62%
[5]; 10 mg lemborexant in combination with fluconazole 200 mg once per day, plasma
  Cmax (geometric mean): 88.3 ng/mL
[5]; [8]
  AUC(0-inf): 374 ng·h/mL
[5]; [16]
  AUC(0-inf) ratio of (b) to (a): 4.17
  Cmax ratio of (b) to (a): 1.62
[5]; [10]
  Cmax (geometric mean): 54.4 ng/mL
